The experiment concerns the target T1, Zcchc11 enzyme (Homo sapiens, UniProt Q5TAX3).
T1 construct: made in house; host or cells: HEK293 cells (Zcchc11); E. coli Rosetta II (LIN28A)
T1 sequence (Q5TAX3 212-1420): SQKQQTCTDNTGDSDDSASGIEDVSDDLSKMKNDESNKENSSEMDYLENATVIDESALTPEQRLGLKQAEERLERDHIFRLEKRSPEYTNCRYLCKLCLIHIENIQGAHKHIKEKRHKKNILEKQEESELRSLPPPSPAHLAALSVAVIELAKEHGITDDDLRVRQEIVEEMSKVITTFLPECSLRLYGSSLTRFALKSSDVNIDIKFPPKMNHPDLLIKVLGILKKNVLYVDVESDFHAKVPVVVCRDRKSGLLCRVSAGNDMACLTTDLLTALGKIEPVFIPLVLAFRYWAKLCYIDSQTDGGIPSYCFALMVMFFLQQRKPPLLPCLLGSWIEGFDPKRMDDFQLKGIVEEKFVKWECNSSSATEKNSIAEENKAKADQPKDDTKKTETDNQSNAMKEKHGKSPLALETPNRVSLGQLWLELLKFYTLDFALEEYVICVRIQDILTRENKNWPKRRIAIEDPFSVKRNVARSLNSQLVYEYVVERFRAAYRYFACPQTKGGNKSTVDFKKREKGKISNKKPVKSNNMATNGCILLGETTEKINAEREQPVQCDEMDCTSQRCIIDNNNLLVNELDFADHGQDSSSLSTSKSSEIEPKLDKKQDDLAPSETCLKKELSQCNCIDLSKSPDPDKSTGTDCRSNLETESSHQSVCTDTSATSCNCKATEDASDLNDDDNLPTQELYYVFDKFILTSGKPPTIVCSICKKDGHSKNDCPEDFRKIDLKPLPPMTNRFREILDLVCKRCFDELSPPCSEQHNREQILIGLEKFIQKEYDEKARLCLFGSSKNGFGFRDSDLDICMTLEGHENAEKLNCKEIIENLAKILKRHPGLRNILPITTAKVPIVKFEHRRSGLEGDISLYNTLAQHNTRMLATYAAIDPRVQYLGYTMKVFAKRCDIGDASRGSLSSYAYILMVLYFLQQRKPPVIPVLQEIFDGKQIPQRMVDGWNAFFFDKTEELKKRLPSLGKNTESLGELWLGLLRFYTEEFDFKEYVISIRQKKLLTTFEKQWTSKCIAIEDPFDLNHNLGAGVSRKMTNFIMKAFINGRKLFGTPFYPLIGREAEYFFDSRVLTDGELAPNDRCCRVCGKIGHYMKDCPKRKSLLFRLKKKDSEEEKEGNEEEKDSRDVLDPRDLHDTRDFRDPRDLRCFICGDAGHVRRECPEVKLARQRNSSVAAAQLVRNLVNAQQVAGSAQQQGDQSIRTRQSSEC
The experiment in a line: TUTase assay (Zcchc11 assay, Lin28a-dependent polyuridylation of pre-let-7). In kind it is biochemical. As to conditions: Lin28a-dependent Zcchc11 (Z11) TUTase activity; read-out: Potency Lin28a-dep Z11 IC50. The method, boiled down: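 HEK293-expressed human Zcchc11 (residues 212-1420, 0.2 nM) with 10 nM LIN28A and 2 nM 5′-fluorescein pre-let-7, preincubated 30 min at room temperature, pH 7.3. Started with 5 uM UTP; poly(U) tails quenched by 3′-rhodamine A20 probe, read kinetically. IC50 from early-rate four-parameter fit; no-UTP wells define 0%.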

The structures appear in SMILES notation. Bounds are passed on as bounds.

In general, IC50 refers to the concentration that gives 50% inhibition.

In the case of `CN(C)C1CN(c2ccc(-n3cc(C(=O)O)c(=O)c4cc(Cl)c(N5CCC[C@]5(C)COc5ncccc5Cl)cc43)cn2)C1` [Compound 277, (R)-6-chloro-7-(2-(((3-chloropyridin-2-yl)oxy)methyl)-2-methyl-pyrrolidin-1-yl)-1-(6-(3-(dimethyl-amino)azetidin-1-yl)pyridin-3-yl)-4-oxo-1,4-dihydro-quinoline-3-carboxylic acid formic acid], the IC50 was at most 1 µM.
As for `COCCN(C)C1CN(c2ccc(-n3cc(C(=O)O)c(=O)c4cc(F)c(N5CCC[C@@H]5COc5ncccc5Cl)cc43)cn2)C1` [Compound 278, (R)-7-(2-(((3-chloropyridin-2-yl)oxy)methyl)pyrrolidin-1-yl)-6-fluoro-1-(6-(3-((2-methoxyethyl) (methyl)amino)azetidin-1-yl)pyridin-3-yl)-4-oxo-1,4-dihydro-quinoline-3-carboxylic acid], the concentration for half-maximal inhibition (IC50) was at most 1 µM.
`COc1ccc(Cl)c(OCC23CC(CN2c2nc4c(cc2Cl)c(=O)c(C(=O)O)cn4-c2ccc(N4CC(N(C)C)C4)nc2)C3)n1` [Compound 279, 6-chloro-7-(1-(((3-chloro-6-methoxy-pyridin-2-yl)oxy)methyl)-2-azabicyclo [2.1.1]hexan-2-yl)-1-(6-(3-(dimethyl-amino)azetidin-1-yl)pyridin-3-yl)-4-oxo-1,4-dihydro-1,8-naphthyridine-3-carboxylic acid formic acid]: the concentration for half-maximal inhibition (IC50) was at most 1 µM.
The figure for `CN(C)C1CN(c2cnc(-n3cc(C(=O)O)c(=O)c4cc(C#N)c(N5CCC[C@@H]5COc5ncccc5Cl)nc43)cn2)C1` [Compound 280, (R)-7-(2-(((3-chloropyridin-2-yl)oxy)methyl)pyrrolidin-1-yl)-6-cyano-1-(5-(3-(dimethyl-amino)azetidin-1-yl)pyrazin-2-yl)-4-oxo-1,4-dihydro-1,8-naphthyridine-3-carboxylic acid] is at most 1 µM; for `Cn1cc(-n2cc(C(=O)O)c(=O)c3cc(C#N)c(N4CCC[C@H]4COc4ncccc4Cl)nc32)cn1` [Compound 281, (S)-7-(2-(((3-chloropyridin-2-yl)oxy)methyl)pyrrolidin-1-yl)-6-cyano-1-(1-methyl-1H-pyrazol-4-yl)-4-oxo-1,4-dihydro-1,8-naphthyridine-3-carboxylic acid] it is at most 1 µM.
The result for `CN(C)C1CN(c2ccc(-n3cc(C(=O)O)c(=O)c4cc(Cl)c(N5C6CCC5(COc5ncccc5Cl)CC6)cc43)cn2)C1` [Compound 282, 6-chloro-7-(1-(((3-chloropyridin-2-yl)oxy)methyl)-7-azabicyclo [2.2.1]heptan-7-yl)-1-(6-(3-(dimethyl-amino)azetidin-1-yl)pyridin-3-yl)-4-oxo-1,4-dihydro-quinoline-3-carboxylic acid] reads at most 1 µM; that for `N#Cc1cc2c(=O)c(C(=O)O)cn(-c3cnccn3)c2nc1N1CCC[C@@H]1COc1ccccc1` [Compound 283, (R)-6-cyano-4-oxo-7-(2-(phenoxy-methyl)pyrrolidin-1-yl)-1-(pyrazin-2-yl)-1,4-dihydro-1,8-naphthyridine-3-carboxylic acid], 10 to 50 µM; that for `CN(C)C1CN(c2ccc(-n3cc(C(=O)O)c(=O)c4cc(C#N)c(N5CCC[C@]5(C)COc5ncccc5F)cc43)cn2)C1` [Compound 284, (R)-6-cyano-1-(6-(3-(dimethyl-amino)azetidin-1-yl)pyridin-3-yl)-7-(2-(((3-fluoropyridin-2-yl)oxy)methyl)-2-methyl-pyrrolidin-1-yl)-4-oxo-1,4-dihydro-quinoline-3-carboxylic acid], at most 1 µM.
The result for `CN(C)C1CN(c2ccc(-n3cc(C(=O)O)c(=O)c4cc(C#N)c(N5CCC[C@@]5(C)COc5ncccc5F)cc43)cn2)C1` [Compound 285, (S)-6-cyano-1-(6-(3-(dimethyl-amino)azetidin-1-yl)pyridin-3-yl)-7-(2-(((3-fluoropyridin-2-yl)oxy)methyl)-2-methyl-pyrrolidin-1-yl)-4-oxo-1,4-dihydro-quinoline-3-carboxylic acid] reads at most 1 µM.

Values taken from patent US12662491B2 (Redona Therapeutics, Inc., priority 2020, dated 2026).
